Assays:
[1] = test system: Cercospora arachidicola; experiment: Fungicidal activity against Cercospora arachidicola; type: cell-based; details: 25 mg/L
Procedure: (§1) Bioassay method: Stock solution of every test compound was prepared in an appropriate solvent such as N,N-dimethylformamide (DMF), and then diluted to the required test concentrations with sterile water containing 0.1% Tween 80; Pipetted 3 mL of test solution to 27 mL of potato dextrose agar (PDA) medium at 45° C. and poured into a Petri dish to prepare a plate after shaking thoroughly; 6 mm of diameter of fungi cake from the edge of 7-day-old […] colony was inoculated on the central of the plate, wherein mycelium facing down, and cultured in the culture tank at 28° C. The diameter of fungi spread was calculated 4 days later using the control group tested with the diluent only. Test was run 4 times. Data were subjected to EXCEL statistical software analysis and the growth inhibition of the tested compound was calculated according to the corresponding control, the activity was rated on the basis of percentage of growth inhibition using the following rating system: A, inhibition (%)>90; B, 90≧inhibition (%)>70; C, 70≧inhibition (%)>50; D, inhibition (%)≦50.

[2] = test system: Marssonina coronaria; experiment: Fungicidal activity against Marssonina coronaria; type: cell-based; details: 25 mg/L
Procedure: as §1

[3] = test system: Fusarium oxysporum; experiment: Fungicidal activity against Fusarium oxysporum; type: cell-based; details: 25 mg/L
Procedure: as §1

[4] = test system: Sclerotinia sclerotiorum; experiment: Fungicidal activity against Sclerotinia sclerotiorum, mycelial growth inhibition on PDA plate; type: cell-based; details: for activities against Sclerotinia sclerotiorum (growth inhibition): Table 4
Procedure: as §1

[5] = test system: Alternaria solani; experiment: Fungicidal activity against Alternaria solani; type: cell-based; details: 25 mg/L
Procedure: as §1

[6] = test system: Alternaria mali; experiment: Fungicidal activity against Alternaria mali; type: cell-based; details: 25 mg/L
Procedure: as §1

[7] = test system: Sphaceloma ampelinum; experiment: Fungicidal activity against Sphaceloma ampelinum; type: cell-based; details: 25 mg/L
Procedure: as §1

[8] = test system: Botrytis cinerea; experiment: Fungicidal activity against Botrytis cinerea, mycelial growth inhibition on PDA plate; type: cell-based; details: for activities against Botrytis cinerea (growth inhibition rating): 25 mg/L; for activities against Botrytis cinerea (growth inhibition): Table 7
Procedure: as §1
Fungicidal activities against Botrytis cinerea of compounds represented by the general formula (I) were evaluated with the corresponding method in Example 18, and some of the test results are shown in Table 6 to Table 8.

[9] = test system: Digitaria sanguinalis; experiment: Herbicidal activity, pre-emergence pot test, Digitaria sanguinalis; type: in vivo; details: 150 g a.i./mu, 15 to 25 days after treatment
Source text: (§2) Bioassay method: (1) Plastic pots (about 64 cm^2) were filled with soil and placed in a stainless steel basin, seeds with the same size and plumpness of monocotyledonous weeds such as Digitaria sanguinalis, Echinochloa crus-galli, Setaria viridis and Dicotyledonous weeds such as Abutilon theophrasti or Stelleria media or Solanum nigrum, Chenopodium album, Amaranthus ascedene or Amaranthus retroflexus were sown in one-third of the pot area with the soil depth of 1 cm in two different pots separately and grown to the desired leaf stage in a greenhouse wherein water is added to the stainless steel basin until the full infiltration of soils from the bottom of pots; (2) Test compounds represented by the general formula (I) were formulated by using N,N-dimethylformamide as solvent and a small amount of Tween 80 as emulsification agent, then diluted to the required test concentrations with water, using the control group tested with corresponding solvent and water only; (3) the required test solutions were applied for pre-emergence treatment 24 hr after the weeds were sown, for postemergence treatment, monocotyledonous weeds were treated at the 1-leaf stage and dicotyledonous weeds were treated at 2 leaf stage; (4) the pre- and postemergence application rates were 150 g a.i./mu, using the control group with corresponding solvent or water respectively; (5) Treatments were kept in greenhouse for cultivation; (6) Herbicidal activities were evaluated visually 15 to 25 days after treatment, on the basis of the survey results, the weed control effect can be calculated by the following formula: efficacy (%)=(the height of the weed in the control group−the height of the weed in the test group) (the height of the weed in the control group).

[10] = test system: Abutilon; experiment: Herbicidal activity, pre-emergence pot test, Abutilon; type: in vivo, Abutilon theophrasti; details: 150 g a.i./mu, 15 to 25 days after treatment
Source text: as §2

[11] = test system: Chenopodium album; experiment: Herbicidal activity, pre-emergence pot test, Chenopodium album; type: in vivo; details: 150 g a.i./mu, 15 to 25 days after treatment
Source text: as §2

[12] = test system: Amaranthus spinosus; experiment: Herbicidal activity, pre-emergence pot test, Amaranthus spinosus; type: in vivo; details: 150 g a.i./mu, 15 to 25 days after treatment
Source text: as §2

[13] = test system: Setaria viridis; experiment: Herbicidal activity, pre-emergence pot test, Setaria viridis; type: in vivo; details: 150 g a.i./mu, 15 to 25 days after treatment
Source text: as §2

[14] = test system: Echinochloa crus-galli; experiment: Herbicidal activity, pre-emergence pot test, Echinochloa crus-galli; type: in vivo; details: 150 g a.i./mu, 15 to 25 days after treatment
Source text: as §2

[15] = test system: Tetranychus urticae; experiment: Acaricidal activity against Tetranychus urticae, dipping of horsebean seedlings; type: in vivo; details: 500 mg/L, mortality 24 hr after the treatment
Procedure: Bioassay method: Stock solution of every test compound was prepared in an appropriate solvent such as N,N-dimethylformamide, and a small amount of Tween 80 was added as emulsification agent, then diluted to the required test concentrations with distilled water, using the control group tested with distilled water only. 100 to 200 adults of Tetranychus urticae were transferred to well-growing horsebean seedlings and 24 hr later, horsebean seedlings with Tetranychus urticae were dipped in the test solution for 10 s, then allowed to dry with filter paper and transplanted to the beaker containing water and kept in a room for normal cultivation. Each assay contained three replications, and results were averaged. Mortality was assessed 24 hr after the treatment. The activity was rated on the basis of mortality using the following rating system: A, mortality>90; B, 90≧mortality>70; C, 70≧mortality>50; D, mortality≦50.

## CC12CC1(C)C(=O)N(c1cc(Cl)cc(Cl)c1)C2=O (stereo not shown) [Procymidone, reference compound]
[1]
  activity against Cercospora arachidicola: 85%
[2]
  activity against Marssonina coronaria: 75%
[3]
  activity against Fusarium oxysporum: 38%
[4]; Sclerotinia sclerotiorum, 0.1562 mg/L, Table 5, read-out: activities against Sclerotinia sclerotiorum (growth inhibition)
  inhibition at 0.1562 µg/mL: 34%
[4]; Sclerotinia sclerotiorum, 0.3125 mg/L, Table 5, read-out: activities against Sclerotinia sclerotiorum (growth inhibition)
  inhibition at 0.3125 µg/mL: 63%
[4]; Sclerotinia sclerotiorum, 0.625 mg/L, Table 5, read-out: activities against Sclerotinia sclerotiorum (growth inhibition)
  inhibition at 0.625 µg/mL: 66%
[4]; Sclerotinia sclerotiorum, 1.255 mg/L, Table 5, read-out: activities against Sclerotinia sclerotiorum (growth inhibition)
  inhibition at 1.255 µg/mL: 76%
[4]; Sclerotinia sclerotiorum, 2.5 mg/L, Table 5, read-out: activities against Sclerotinia sclerotiorum (growth inhibition)
  inhibition at 2.5 µg/mL: 79%
[4]; Sclerotinia sclerotiorum, 5 mg/L, Table 5, read-out: activities against Sclerotinia sclerotiorum (growth inhibition)
  inhibition at 5 µg/mL: 93%
[5]
  activity against Alternaria solani: 94%
[6]
  activity against Alternaria mali: 82%
[7]
  activity against Sphaceloma ampelinum: 96%
[8]; Botrytis cinerea, 0.1562 mg/L, Table 8, read-out: activities against Botrytis cinerea (growth inhibition)
  inhibition at 0.1562 µg/mL: 46%
[8]; Botrytis cinerea, 0.3125 mg/L, Table 8, read-out: activities against Botrytis cinerea (growth inhibition)
  inhibition at 0.3125 µg/mL: 67%
[8]; Botrytis cinerea, 0.625 mg/L, Table 8, read-out: activities against Botrytis cinerea (growth inhibition)
  inhibition at 0.625 µg/mL: 75%
[8]; Botrytis cinerea, 1.255 mg/L, Table 8, read-out: activities against Botrytis cinerea (growth inhibition)
  inhibition at 1.255 µg/mL: 83%
[8]; Botrytis cinerea, 2.5 mg/L, Table 8, read-out: activities against Botrytis cinerea (growth inhibition)
  inhibition at 2.5 µg/mL: 93%
[8]; Botrytis cinerea, 5 mg/L, Table 8, read-out: activities against Botrytis cinerea (growth inhibition)
  inhibition at 5 µg/mL: 100%

## CCN(Cc1cnc(Cl)s1)c1nc(SC)ccc1[N+](=O)[O-] [Compound 18]
[9]
  herbicidal activity (efficacy), Digitaria sanguinalis: 90%
[10]
  herbicidal activity (efficacy), Abutilon: 0%
[11]
  herbicidal activity (efficacy), Chenopodium album: 0%
[12]
  herbicidal activity (efficacy), Amaranthus spinosus: 0%
[13]
  herbicidal activity (efficacy), Setaria viridis: 80%
[14]
  herbicidal activity (efficacy), Echinochloa crus-galli: 80%
[8]
  activities against Botrytis cinerea (growth inhibition rating): B (B, 90≧inhibition (%)>70)

## CNc1ccc([N+](=O)[O-])c(N(C)Cc2cnc(Cl)s2)n1 [Compound 20]
[9]
  herbicidal activity (efficacy), Digitaria sanguinalis: 70%
[10]
  herbicidal activity (efficacy), Abutilon: 70%
[11]
  herbicidal activity (efficacy), Chenopodium album: 90%
[12]
  herbicidal activity (efficacy), Amaranthus spinosus: 90%
[13]
  herbicidal activity (efficacy), Setaria viridis: 70%
[14]
  herbicidal activity (efficacy), Echinochloa crus-galli: 70%

## C=CCOc1ccc([N+](=O)[O-])c(N(CC)Cc2cnc(Cl)s2)n1 [Compound 29, 6-allyloxy-N-((2-chlorothiazole-5-yl)methyl)-N-ethyl-nitropyridine-2-amine]
[15]
  activities against Tetranychus urticae (mortality rating): C (C, 70≧mortality>50)
[4]; 1.25 mg/L
  activities against Sclerotinia sclerotiorum (growth inhibition): 63%
[4]; 2.5 mg/L
  activities against Sclerotinia sclerotiorum (growth inhibition): 72%
[4]; 5 mg/L
  activities against Sclerotinia sclerotiorum (growth inhibition): 79%
[4]; 10 mg/L
  activities against Sclerotinia sclerotiorum (growth inhibition): 83%
[4]; 25 mg/L
  activities against Sclerotinia sclerotiorum (growth inhibition rating): A (A, inhibition (%)>90)
[8]; 1.25 mg/L
  activities against Botrytis cinerea (growth inhibition): 62%
[8]; 2.5 mg/L
  activities against Botrytis cinerea (growth inhibition): 67%
[8]; 5 mg/L
  activities against Botrytis cinerea (growth inhibition): 73%
[8]; 10 mg/L
  activities against Botrytis cinerea (growth inhibition): 80%
[8]
  activities against Botrytis cinerea (growth inhibition rating): A (A, inhibition (%)>90)

## CN(C)c1ccc([N+](=O)[O-])c(N(C)Cc2cnc(Cl)s2)n1 [Compound 23]
[9]
  herbicidal activity (efficacy), Digitaria sanguinalis: 0%
[10]
  herbicidal activity (efficacy), Abutilon: 70%
[11]
  herbicidal activity (efficacy), Chenopodium album: 80%
[12]
  herbicidal activity (efficacy), Amaranthus spinosus: 80%
[13]
  herbicidal activity (efficacy), Setaria viridis: 0%
[14]
  herbicidal activity (efficacy), Echinochloa crus-galli: 0%
[8]
  activities against Botrytis cinerea (growth inhibition rating): B (B, 90≧inhibition (%)>70)

Source: US9386769B2 (HUNAN RESEARCH INSTITUTE OF CHEMICAL INDUSTRY CO., LTD., priority 2011, dated 2016)
